# Data from patent publication US12239413B2, “2D material detector for activity monitoring of single living micro-organisms and nano-organisms” (SOUNDCELL HOLDING B.V., priority 2019, dated 2025).
# Assays:
# E. coli bacteria [1] = test: Motion of suspended silanized exfoliated 10 nm few layer graphene with adhered E. coli, antibiotic susceptibility; type: cell-based
# Method: In the embodiment of FIG. 2 a red helium-neon laser 114 is directed through optical components 115 on the 2D material layer 102 which is placed in a controlled humidity chamber 116. The intensity of the reflected light from the chip 109 is altered by the motion of the micro-organism 105 in the liquid droplet 111 that in turn moves the suspended 2D material 102. This intensity is then measured by a photodiode 117 connected to an oscilloscope 118. In another example a liquid droplet 111 containing micro-organism E. coli bacteria 105 and nutrition Lysogeny broth solution 112 has been dispensed on the sample receiver 101 comprising an array of silanized natural crystal exfoliated 10 nm few layer thick graphene as the suspended material 102. FIGS. 4a, 4b and 4c show the time traces of the suspended layer in a timeframe of twelve minutes.
# E. coli bacteria [2] = test: Motion of suspended single layer CVD graphene with E. coli droplet, antibiotic susceptibility; type: cell-based; settings: single layer chemical vapour deposited graphene, Lysogeny broth droplet
# Method: In the embodiment of FIG. 2 a red helium-neon laser 114 is directed through optical components 115 on the 2D material layer 102 which is placed in a controlled humidity chamber 116. The intensity of the reflected light from the chip 109 is altered by the motion of the micro-organism 105 in the liquid droplet 111 that in turn moves the suspended 2D material 102. This intensity is then measured by a photodiode 117 connected to an oscilloscope 118. In one example a liquid droplet 111 containing micro-organism E. coli bacteria 105 and nutrition Lysogeny broth solution 112 has been dispensed on the sample receiver 101 comprising an array of single layer chemical vapour deposited graphene as the inert suspended layer 102. The motion is read out using the measurement system described in FIG. 2. The motion of the suspended layer is traced in a timeframe of a few seconds in the presence and absence of chemicals 113 and micro-organisms 105.
compound,measurement,setting,value
O=C(N[C@H](CO)[C@H](O)c1ccc([N+](=O)[O-])cc1)C(Cl)Cl [Chloramphenicol],change in average amplitude of the amplitude spectrum of the time traces after adding antibiotic,E. coli bacteria [1]; FIGS. 5a-b (FIG. 4a vs FIG. 4c),tenfold decrease
same,fluctuations of the motion time trace (bacterial metabolic activity) after addition of antibiotic,"E. coli bacteria [1]; adhered bacteria, timeframe of twelve minutes, FIGS. 4b, 4c",No fluctuations are observed
same,change of variance of the time traces after adding antibiotic,"E. coli bacteria [1]; timeframe of twelve minutes, FIG. 4d",drops about hundred times
same,change of variance of the time traces after adding antibiotic,E. coli bacteria [2]; FIG. 3d,drops about three times
same,fluctuations of the motion time trace (bacterial metabolic activity) after addition of antibiotic,"E. coli bacteria [2]; timeframe of a few seconds, FIG. 3c",No fluctuations are observed
